Results published in patent US6673937B2, “Syntheses and methods of use of new antimitotic agents” (The University of Pittsburgh, priority 2000, dated 2004).
pIC50: −log10 of the molar value.

Key:
[1] = system: mouse embryonic fibroblasts transformed with SV40 large T antigen; test: Proliferation of SV40 transformed mouse embryonic fibroblasts; type: cell-based; conditions: Mus musculus, Fibroblast; data not shown; read-out: concentration required to inhibit growth by 50%
Procedure: Two compounds, 24 referred to herein as SR-4 and 27 referred to herein as SR-7, were examined in greater detail as to their effects on biological activity. The proliferation of MCF-7, MDA-MB-231 and SV40 transformed mouse embryonic fibroblasts was measured by a previously described colorimetric assay (Wipf P, Jung J-K, Rodriguez S, Lazo JS Synthesis and biological evaluation of Deoxypreussomerin A and Palmarumycin CP 1 and related naphthoquinone spiroketals. Tetrahedron 57:283-296, 2001 and Vogt A, Rice RL, Settineri CE, Yokokawa F, Yokokawa S, Wipf P and Lazo JS (1998) Disruption of insulin-like growth factor-I signaling and down-regulation of Cdc2 by SC-ααδ9, a novel small molecule antisignaling agent identified in a targeted array library. J Pharmacol Exptl Therap 287:806-813.). Briefly, the inventors seeded 4,000-6,000 cells per well in microtiter plates. Cells were allowed to attach overnight and treated with vehicle or compounds for 72 h, after which the medium was replaced with serum free medium containing 0.1% 3-[4,5-dimethylthiazol-2-yl]-2,5-diphenyl tetrazolium bromide. Plates were incubated for 3 hours in the dark and total cell number was determined by spectrophotometrically at 540 nm as previously described (Vogt A, Rice RL, Settineri CE, Yokokawa F, Yokokawa S, Wipf P and Lazo JS (1998) Disruption of insulin-like growth factor-1 signaling and down-regulation of Cdc2 by SC-ααδ9, a novel small molecule antisignaling agent identified in a targeted array library. J Pharmacol Exptl Therap 287:806-813.). […] Cells were maintained in RPMI 1640 medium containing 10% fetal bovine serum and the paclitaxel-resistant cells also contained 17 nM paclitaxel and 10 μM verapamil. […] The number of cells was determined spectrophotometrically at 490 nm minus absorbance at 630 nm after exposure to 3-(4,5-dimethylthiazol-2-yl)-5-(3-carboxymethoxyphenyl)-2-(4-sulfophenyl)-2H-tetrazolium and N-methyldibenzopyurazine methyl sulfate. […]

bovine brain tubulin = test: GTP-induced tubulin assembly (turbidity); type: biochemical; conditions: 40 μM
Procedure: Tubulin without microtubule-associated proteins was isolated from fresh bovine brains (Hamel E and Lin CM (1984). Separation of active tubulin and microtubule-associated proteins by ultracentrifugation and isolation of a component causing the formation of microtubule bundles. Biochemistry 23:4173-4184). Inhibition of assembly reactions was carried out as described previously (Verdier-Pinard P, Lai J-Y, Yoo H-D, Yu J, Marquez B, Nagle DG, Nambu M, White JD, Falck JR, Gerwick WH, Day BW and Hamel E (1998) Structure-activity analysis of the interaction of curacin A, the potent colchicine site antimitotic agent, with tubulin and effects of analogs on the growth of MCF-7 breast cancer cells. Mol Pharmacol 53:62-76.).
(§1) The inventors examined the ability of SR-7 to alter tubulin polymerization or depolymerization in vitro. FIG. 28, Panel A. Compounds (predissolved in DMSO) were preincubated with tubulin containing monosodium glutamate at 30 ° C. for 15 min. Samples were cooled to 0 ° C. and GTP was added. Samples were placed in a temperature-controlled multi-cuvette holder of a spectrophotometer held at 0 ° C. Baselines were established and temperature was rapidly raised to 30 ° C. Turbidity development in the cuvettes was measured at 350 nm. FIG. 28, Panel B. Compounds were added to the tubulin plus monosodium glutamate mixture at 0 ° C., placed in the spectrophotometer and temperature was raised to 30 ° C. Addition of 0.4 mM GTP to isolated bovine brain tubulin produced robust polymerization that began to plateau approximately 20 min after microtubule assembly commenced (Panel A).

bovine tubulin = test: Tubulin hypernucleation without GTP; type: biochemical; conditions: in vitro
Procedure: as §1

tsFT210 cells = test: Flow cytometry, G2/M arrest in tsFT210 cells; type: cell-based, mouse; conditions: 2.5 to 10 μM, 6 hours after release at 32.0° C.
Procedure: Oncogene 18:6989-6996, Th′ng JP, Wright PS, Hamaguchi J, Lee MG, Norbury CJ, Nurse P and Bradbury EM (1990) The FT210 cell line is a mouse G2 phase mutant with a temperature-sensitive CDC2 gene product. Cell 63:313-324.). Cell proliferation was blocked at G2 phase by incubation at 39.4° C. for 17 h. The synchronized cells were then released by re-incubating at 32.0° C. and treated immediately with 0-10 μM SR-7, 1 μM nocodazole or 100 EM SC-ααδ9, respectively, to probe for G2/M arrest. […] The harvested cells were stained with a solution containing 50 μg/ml propidium iodide and 250 μg/ml RNase A. Flow cytometry analysis was conducted with a Becton Dickinson FACS Star (Franklin Lakes, N.J.). […] This G2/M retention at 4C is probably due to the extended cell cycle blockage at 39.4° C. (Osada H, Cui CB, Onose R and Hanaoka F (1997) Screening of cell cycle inhibitors from microbial metabolites by a bioassay using a mouse cdc2 mutant cell line, tsFT210. Bioorg Med Chem 5:193-203). […] SC-ααδ9 is an inhibitor of the Cdc25 family of phosphatases that controls cell cycle checkpoints (Rice RL, Rusnak JM, Yokokawa F, Yokokawa S, Messner DJ, Boynton AL, Wipf P and Lazo JS (1997) A targeted library of small molecule, tyrosine and dual specificity phosphatase inhibitors derived from a rational core design and random side chain variation. Biochemistry 36:15965-15974).

O=C1C=CC2(Oc3cccc4cccc(c34)O2)c2cccc(OCc3ccco3)c21 [SR-7, 8-(furan-2-ylmethoxy)-1-oxo-1,4-dihydronaphthalene-4-spiro-2′-naphto [1″,8″-de][1′,3′] dioxin]
pIC50 [1]: 5.52
inhibition of tubulin assembly (bovine brain tubulin): only moderate inhibition of tubulin assembly
hypernucleation of tubulin (bovine tubulin): failed in vitro to hypernucleate bovine tubulin
G2/M cell cycle transition (tsFT210 cells): concentration-dependent arrest in the G2/M phase
G2/M cell cycle transition (tsFT210 cells; listed as 27): can arrest mammalian cells in the G2/M phase

O=C1C=CC2(Oc3cccc4cccc(c34)O2)c2cccc(O)c21 [palmarumycin CP1, 8-hydroxy-1-oxo-1,4-dihydronaphthalene-4-spiro-2′-naphtho[1″,8″-de] [1′,3′] dioxin, reference compound]
pIC50 [1]: 5.52
